Test results: patent publication US20260001914A1, “MACROCYCLIC PEPTIDES TARGETING KRAS” (Merck Sharp & Dohme LLC, priority 2022, published 2026)
*1 amine or outer side, *2 acyl side, *3 side chain or, on linkers, in order; H or OH if unused. Where a SMILES comes first, the peptide text is derived from it. Bridges are numbered along the chain shown (N, C = ends). [ ]: non-standard residue; d: D form. Phe(4-guanidino) = N=C(N)Nc1ccc(C[C@H](N)C(=O)O)cc1; X18 = CNC(=N)N(C)c1ccc(C[C@H](N[*:1])C(=O)[*:2])cc1; Ala(pyrimidin-5-yl) = N[C@@H](Cc1cncnc1)C(=O)O; NMe3Pal(6-Me) = CN[C@@H](Cc1ccc(C)nc1)C(=O)O; NMe3Pal(5-F) = CN[C@@H](Cc1cncc(F)c1)C(=O)O; NMePhe(3-Me) = CN[C@@H](Cc1cccc(C)c1)C(=O)O; X14 = O=C([C@H](Cc1c(F)cncc1F)N[*:1])[*:2]; X33 = O=C([C@H](Cc1ccnc(F)c1F)N[*:1])[*:2]; X3 = CN([C@@H](Cc1cncnc1)C(=O)[*:2])[*:1]; Leu(4,5-dehydro) = C=C(C)C[C@H](N)C(=O)O; X26 = Cn1cc(C[C@H](N[*:1])C(=O)[*:2])cn1; X11 = CC(C)(F)CC[C@H](N[*:1])C(=O)[*:2]; NMeAha = CN[C@@H](CCN=[N+]=[N-])C(=O)O; X28 = O=C([C@H](Cc1ncccn1)N[*:1])[*:2]; X35 = CN([C@@H](CCCF)C(=O)[*:2])[*:1]; Ala(cPent) = N[C@@H](CC1CCCC1)C(=O)O; Phe(2-F) = N[C@@H](Cc1ccccc1F)C(=O)O; NMe3Pal = CN[C@@H](Cc1cccnc1)C(=O)O; X1 = O=C(C12CC(CN[*:1])(C1)C2)[*:2]; NMeOrn(Me) = CNCCC[C@H](NC)C(=O)O; Ala(cPr) = N[C@@H](CC1CC1)C(=O)O; NMeF = CN[C@@H](Cc1ccccc1)C(=O)O; PhLac = O=C(O)[C@@H](O)Cc1ccccc1; X4 = O=C([C@H](CCCF)N[*:1])[*:2]; X9 = CCCC[C@H](O[*:1])C(=O)[*:2]; 3Pal = N[C@@H](Cc1cccnc1)C(=O)O; Ahp(2) = CCCCC[C@H](N)C(=O)O; Cba = N[C@@H](CC1CCC1)C(=O)O; hLeu = CC(C)CC[C@H](N)C(=O)O; αMeC = C[C@](N)(CS)C(=O)O; NMeA = CN[C@@H](C)C(=O)O; Nle = CCCC[C@H](N)C(=O)O
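Note: signal taken as phospho-ERK over total ERK per well, both detected in one multiplex bead assay, EC50 from four-parameter logistic fit of dose-response curves.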

Each compound was assayed against phosphorylation levels of ERK1/2 in AsPC-1 (homozygous KRAS-G12D) cells (Homo sapiens, UniProt P01116, G12D) (assay: Cellular phospho-ERK assay in AsPC-1 cells (Alpha Screen), assay medium without fetal bovine serum). Details: phospho-ERK AlphaScreen, 18 h.
phosphorylation levels of ERK1/2 in AsPC-1 (homozygous KRAS-G12D) cells, sequence (P01116 1-186 G12D): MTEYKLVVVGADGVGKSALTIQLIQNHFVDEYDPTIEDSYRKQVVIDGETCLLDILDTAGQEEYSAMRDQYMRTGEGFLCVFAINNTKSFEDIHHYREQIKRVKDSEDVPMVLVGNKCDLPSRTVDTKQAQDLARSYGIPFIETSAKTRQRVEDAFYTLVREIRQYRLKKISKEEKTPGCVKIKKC
Assay type: cell-based
Protocol: Assay plate was incubated at 37° C. 5% CO2 for the indicated length of time. […] Phosphorylated ERK and total ERK levels were detected by Alpha SureFire Ultra Multiplex pERK kit (PerkinElmer MPSU-PTERK) using 5 μL, acceptor bead mix and 5 μL donor bead mix, both prepared following the manufacturer's protocol. Plates were sealed using aluminum sealing tape (Costar 07-200-683) during incubation at ambient temperature with constant shaking at 300 rpm for 1 h (both acceptor and donor). Assay plates were read on a Envision Xcite Multilabel Reader (PerkinElmer 1040900) at ambient temperature, with emission at 535 nm (Total ERK) and emission at 615 nm (Phospho ERK). Ratio of pERK vs total ERK in each well was used as the final readout. Dose response curves and EC50 were analyzed using a 4-parameter logistic equation in GraphPad Prism software.
Compound `CC(C)CC[C@@H]1NC(=O)[C@H](Cc2ccccc2F)NC(=O)[C@H](CC2CC2)NC(=O)[C@H](Cc2cccnc2)NC(=O)[C@H](C)N(C)C(=O)[C@H](Cc2ccccc2)OC(=O)C23CC(CNC(=O)[C@H](Cc4cncc(F)c4)N(C)C1=O)(C2)C3` [compound 283, cyclo(FLac-NMeA-3Pal-cPrA-Phe2F-hL-NMe3Pal5F-amBCP)] (cyclo([3Pal][Ala(cPr)][Phe(2-F)][hLeu][NMe3Pal(5-F)][X1][PhLac][NMeA])) has an EC50 of 1.27 µM.
Compound `CCCCC[C@@H]1NC(=O)[C@H](Cc2ccc(OC)cc2)NC(=O)[C@H](CC2CCC2)NC(=O)[C@H](Cc2cccnc2)NC(=O)[C@H](CCCNC(=N)N)NC(=O)[C@H](Cc2ccccc2)OC(=O)C23CC(CNC(=O)[C@H](Cc4ccccc4)N(C)C1=O)(C2)C3` [compound 211, cyclo(FLac-R-3Pal-cBuA-TyrOMe-Ahp-NMeF-amBCP)] (cyclo([PhLac]R[3Pal][Cba]Y(Me)[Ahp(2)][NMeF][X1])) has an EC50 greater than 50.8 µM.
Compound `CC(C)CC[C@@H]1NC(=O)[C@H](Cc2ccnc(F)c2F)NC(=O)[C@H](CC2CC2)NC(=O)[C@H](Cc2cncnc2)NC(=O)[C@H](C)N(C)C(=O)[C@H](Cc2ccccc2)OC(=O)C23CC(CNC(=O)[C@H](Cc4ccccc4)N(C)C1=O)(C2)C3` [compound 293, cyclo(FLac-NMeA-PyrimAla-cPrA-4Pal23F2-hL-NMeF-amBCP)] (cyclo([Ala(cPr)][X33][hLeu][NMeF][X1][PhLac][NMeA][Ala(pyrimidin-5-yl)])) has an EC50 of 45.5 µM.
Compound `CCCC[C@@H]1NC(=O)[C@H](Cc2ccccc2F)NC(=O)[C@H](CCCF)NC(=O)[C@H](Cc2cccnc2)NC(=O)[C@H](C)N(C)C(=O)[C@H](Cc2ccccc2)OC(=O)C23CC(CNC(=O)[C@H](Cc4cccnc4)N(C)C1=O)(C2)C3` [compound 120, cyclo(FLac-NMeA-3Pal-NvaF-Phe2F-Nle-NMe3Pal-amBCP)] (cyclo([3Pal][X4][Phe(2-F)][Nle][NMe3Pal][X1][PhLac][NMeA])) has an EC50 greater than 50.8 µM.
`CCCCC[C@@H]1NC(=O)[C@H](Cc2ccc(OC)cc2)NC(=O)[C@H](CC2CCC2)NC(=O)[C@H](Cc2ccc(NC(=N)N)cc2)NC(=O)[C@H](CCCNC)N(C)C(=O)[C@H](Cc2ccccc2)NC(=O)CSC[C@@](C)(C(N)=O)NC(=O)[C@H](Cc2ccccc2)N(C)C1=O` [compound 385, cyclo(F-NMeOrnMe-Phe4Gn-cBuA-TyrOMe-Ahp-NMeF-aMeCl-ClAc)] ({CH2CO}-F[NMeOrn(Me)][Phe(4-guanidino)][Cba]Y(Me)[Ahp(2)][NMeF][αMeC]-NH2; thioether N-8) gave an EC50 greater than 50.8 µM.
Compound `CCCC[C@@H]1NC(=O)[C@H](Cc2ccccc2F)NC(=O)[C@H](CCCC)OC(=O)[C@H](Cc2cccnc2)NC(=O)[C@H](CCN=[N+]=[N-])N(C)C(=O)[C@H](Cc2ccccc2)NC(=O)C23CC(CNC(=O)[C@H](Cc4cccnc4)N(C)C1=O)(C2)C3` [compound 250, cyclo(F-NMeDabN3-3Pal-NleLac-Phe2F-Nle-NMe3Pal-amBCP)] (cyclo(F[NMeAha][3Pal][X9][Phe(2-F)][Nle][NMe3Pal][X1])) has an EC50 greater than 50.8 µM.
Work on `CON=C1C[C@@H](Cc2ccccc2)C(=O)N(C)[C@@H](C)C(=O)N[C@@H](Cc2cncnc2)C(=O)N[C@@H](CC2CC2)C(=O)N[C@@H](Cc2ccccc2F)C(=O)N[C@@H](CCC(C)(F)F)C(=O)N(C)[C@@H](Cc2ccccc2)C(=O)NCC23CC1(C2)C3` (single isomer, unassigned) [compound 178, cyclo(CPhe-NMeA-PyrimAla-cPrA-Phe2F-Nle3F2-NMeF-MeOximamBCP)] yielded an EC50 of 0.128 µM.
Compound `C=C(C)C[C@@H]1NC(=O)[C@H](CC2CC2)NC(=O)[C@H](Cc2cncnc2)NC(=O)[C@H](C)N(C)C(=O)[C@H](Cc2ccccc2)OC(=O)C23CC(CNC(=O)[C@H](Cc4ccccc4)N(C)C(=O)[C@H](CCC(C)C)NC1=O)(C2)C3` [compound 287, cyclo(FLac-NMeA-PyrimAla-cPrA-deHLeu-hL-NMeF-amBCP)] (cyclo([Ala(cPr)][Leu(4,5-dehydro)][hLeu][NMeF][X1][PhLac][NMeA][Ala(pyrimidin-5-yl)])) has an EC50 of 17.1 µM.
Work on `CCCCC[C@@H]1NC(=O)[C@H](Cc2ccc(OC)cc2)NC(=O)[C@H](CC2CCC2)NC(=O)[C@H](Cc2ccc(N(C)C(=N)NC)cc2)NC(=O)[C@H](CCCNC(=N)N)NC(=O)[C@H](Cc2ccccc2)NC(=O)CSC[C@@](C)(C(N)=O)NC(=O)[C@H](Cc2ccccc2)N(C)C1=O` [compound 382, cyclo(F-R-Phe4GnMeMe-cBuA-TyrOMe-Ahp-NMeF-aMeCl-ClAc)] yielded an EC50 greater than 50.8 µM.
In the case of `CCCC[C@@H]1NC(=O)[C@H](Cc2cnn(C)c2)NC(=O)[C@H](C)N(C)C(=O)[C@H](Cc2ccccc2)OC(=O)C23CC(CNC(=O)[C@H](Cc4cccnc4)N(C)C(=O)[C@H](CCCC)NC(=O)[C@H](Cc4ccccc4F)NC1=O)(C2)C3` [compound 400, cyclo(FLac-NMeA-Ala4PyzlMe-Nle-Phe2F-Nle-NMe3Pal-amBCP)] (cyclo([NMe3Pal][X1][PhLac][NMeA][X26][Nle][Phe(2-F)][Nle])), the EC50 is reported as 31.4 µM.
With `CC(C)CC[C@@H]1NC(=O)[C@H](Cc2ccccc2F)NC(=O)[C@H](CC2CCCC2)NC(=O)[C@H](Cc2cncnc2)NC(=O)[C@H](C)N(C)C(=O)[C@H](Cc2ccccc2)OC(=O)C23CC(CNC(=O)[C@H](Cc4cncnc4)N(C)C1=O)(C2)C3` [compound 335, cyclo(FLac-NMeA-PyrimAla-cPeA-Phe2F-hL-NMeAlaPyrim-amBCP)] (cyclo([Ala(cPent)][Phe(2-F)][hLeu][X3][X1][PhLac][NMeA][Ala(pyrimidin-5-yl)])) the EC50 was 5.27 µM.
In the case of `Cc1cccc(C[C@H]2C(=O)NCC34CC(C3)(C4)C(=O)O[C@@H](Cc3ccccc3)C(=O)N(C)[C@@H](C)C(=O)N[C@@H](Cc3cncnc3)C(=O)N[C@@H](CC3CC3)C(=O)N[C@@H](Cc3ccccc3F)C(=O)N[C@@H](CCC(C)(C)F)C(=O)N2C)c1` [compound 274, cyclo(FLac-NMeA-PyrimAla-cPrA-Phe2F-hL3F-NMePhe3Me-amBCP)] (cyclo([Ala(cPr)][Phe(2-F)][X11][NMePhe(3-Me)][X1][PhLac][NMeA][Ala(pyrimidin-5-yl)])), the EC50 is reported as 0.604 µM.
`CC(C)CC[C@@H]1NC(=O)[C@H](Cc2ccccc2F)NC(=O)[C@H](CC2CC2)NC(=O)[C@H](Cc2ncccn2)NC(=O)[C@H](C)N(C)C(=O)[C@H](Cc2ccccc2)OC(=O)C23CC(CNC(=O)[C@H](Cc4ccccc4)N(C)C1=O)(C2)C3` [compound 281, cyclo(FLac-NMeA-2PyrimAla-cPrA-Phe2F-hL-NMeF-amBCP)] (cyclo([Ala(cPr)][Phe(2-F)][hLeu][NMeF][X1][PhLac][NMeA][X28])) showed an EC50 of 9.89 µM.
`CC(C)CC[C@@H]1NC(=O)[C@H](Cc2ccccc2F)NC(=O)[C@H](CC2CC2)NC(=O)[C@H](Cc2cncnc2)NC(=O)[C@H](CCCF)N(C)C(=O)[C@H](Cc2ccccc2)OC(=O)C23CC(CNC(=O)[C@H](Cc4ccccc4)N(C)C1=O)(C2)C3` [compound 216, cyclo(FLac-NMeNvaF-PyrimAla-cPrA-Phe2F-hL-NMeF-amBCP)] (cyclo([Ala(cPr)][Phe(2-F)][hLeu][NMeF][X1][PhLac][X35][Ala(pyrimidin-5-yl)])) was tested, and the EC50 was 1.23 µM.
Work on `CCCC[C@@H]1NC(=O)[C@H](Cc2cccnc2)NC(=O)[C@H](C)N(C)C(=O)[C@H](Cc2cccnc2)NC(=O)C23CC(CNC(=O)[C@H](Cc4cccnc4)N(C)C(=O)[C@H](CCCC)NC(=O)[C@H](Cc4ccccc4F)NC1=O)(C2)C3` [compound 163, cyclo(3Pal-NMeA-3Pal-Nle-Phe2F-Nle-NMe3Pal-amBCP)] (cyclo([3Pal][NMeA][3Pal][Nle][Phe(2-F)][Nle][NMe3Pal][X1])) yielded an EC50 greater than 50.8 µM.
Compound `CCCCC[C@@H]1NC(=O)[C@H](Cc2ccc(OC)cc2)NC(=O)[C@H](CC2CCC2)NC(=O)[C@H](Cc2ccc(N(C)C(=N)NC)cc2)NC(=O)[C@H](CCCNC)N(C)C(=O)[C@H](Cc2ccccc2)NC(=O)CSC[C@@](C)(C(N)=O)NC(=O)[C@H](Cc2ccc(C)nc2)N(C)C1=O` [compound 395, cyclo(F-NMeOmMe-Phe4GnMeMe-cBuA-TyrOMe-Ahp-NMe3Pal4Me-aMeCl-ClAc)] ({CH2CO}-F[NMeOrn(Me)][X18][Cba]Y(Me)[Ahp(2)][NMe3Pal(6-Me)][αMeC]-NH2; thioether N-8) has an EC50 greater than 50.8 µM.
`CCCCC[C@@H]1NC(=O)[C@H](Cc2ccc(OC)cc2)NC(=O)[C@H](CC2CCCC2)NC(=O)[C@H](Cc2ccc(NC(=N)N)cc2)NC(=O)[C@H](CCCNC(=N)N)NC(=O)[C@H](Cc2ccccc2)NC(=O)CSC[C@@](C)(C(N)=O)NC(=O)[C@H](Cc2ccccc2)N(C)C1=O` [compound 366, cyclo(F-R-Phe4Gn-cPeA-TyrOMe-Ahp-NMeF-aMeCl-ClAc)] ({CH2CO}-FR[Phe(4-guanidino)][Ala(cPent)]Y(Me)[Ahp(2)][NMeF][αMeC]-NH2; thioether N-8) showed an EC50 of 12.2 µM.
Work on `CCCC[C@@H]1NC(=O)[C@H](Cc2ccc(N(C)C(=N)NC)cc2)NC(=O)[C@H](C)N(C)C(=O)[C@H](Cc2ccccc2)OC(=O)CSC[C@@](C)(C(N)=O)NC(=O)[C@H](Cc2cccnc2)N(C)C(=O)[C@H](CCCC)NC(=O)[C@H](Cc2ccccc2F)NC1=O` [compound 397, cyclo(FLac-NMeA-Phe4GnMeMe-Nle-Phe2F-Nle-NMe3Pal-aMeCl-ClAc)] ({CH2CO}-[PhLac][NMeA][X18][Nle][Phe(2-F)][Nle][NMe3Pal][αMeC]-NH2; thioether N-8) yielded an EC50 greater than 50.8 µM.
`CC(C)CC[C@@H]1NC(=O)[C@H](Cc2c(F)cncc2F)NC(=O)[C@H](CC2CC2)NC(=O)[C@H](Cc2cncnc2)NC(=O)[C@H](C)N(C)C(=O)[C@H](Cc2ccccc2)OC(=O)C23CC(CNC(=O)[C@H](Cc4ccccc4)N(C)C1=O)(C2)C3` [compound 292, cyclo(FLac-NMeA-PyrimAla-cPrA-4Pal26F2-hL-NMeF-amBCP)] (cyclo([Ala(cPr)][X14][hLeu][NMeF][X1][PhLac][NMeA][Ala(pyrimidin-5-yl)])) gave an EC50 of 14.5 µM.
`CCCCC[C@@H]1NC(=O)[C@H](Cc2ccc(OC)cc2)NC(=O)[C@H](CC2CCC2)NC(=O)[C@H](Cc2cc[nH]c(=O)c2)NC(=O)[C@H](CCCNC(=N)N)NC(=O)[C@H](Cc2ccccc2)NC(=O)CSC[C@@](C)(C(N)=O)NC(=O)[C@H](Cc2ccccc2)N(C)C1=O` [compound 368, cyclo(F-R-SCO4Pal-cBuA-TyrOMe-Ahp-NMeF-aMeCl-ClAc)] gave an EC50 greater than 50.8 µM.
